# Experiment: recombinant barcode read abundance after kanamycin selection (control-corrected) (log10(CPM+1)); higher = more efficient recombination; sequences stand for … in AGTGCAGAGAAAATCGGCCAGTTTTCTCTGCCTGCAGTCCGCATGCCGT…AGATTTATGCAGCGGACTGCCTTTCTCCCAAAGTGATAAACCGGACAGTATCATGGACCGGTTTTCCCGGTAATCCGTATTTGCAAGGTTGGTTTCACT; site = the 11-nt target
# In short: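 This pooled E. coli screen matched targets with IS621 bridge RNA target-binding loops. Plating was done in duplicate on chloramphenicol/ampicillin LB agar as a control and on chloramphenicol/ampicillin/kanamycin plus 0.1 mM IPTG. Recombination efficiency reflects barcode counts at recombinant junctions as counts per million, averaged and control-corrected. The figures are log10(CPM+1).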
# 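Further: IS621 recombinase and bridge RNA in Escherichia coli cells.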
row,Sequence,recombinant barcode read abundance (log10)
1,GGTATAACTTGGGTTCTAACCTGTTGCCA (site ACACCCTCTCT),0.124
2,GGTATAACTTGGGTTCTAACCTGTTGCCA (site GGTATAACTTG),0.132
3,GGTCCCGCTTGGGTTCTAACCTGTTGCCA (site GGGCCCGCTTA),0.485
4,GGTCCCGCTTGGGTTCTAACCTGTTGCCA (site GGTCCCGCTTG),1.77
5,GGTCGAGCTTGGGTTCTAACCTGTTGCCT (site GGTCGAGCTAG),1.13
6,GGTCGAGCTTGGGTTCTAACCTGTTGCCT (site GGTCGCGCTAG),0.0193
7,GGTCGAGCTTGGGTTCTAACCTGTTGCCT (site GGTCGGGCTAG),0.146
8,GGTCGAGCTTGGGTTCTAACCTGTTGCCT (site GGTCGTGCTAG),0.671
9,GGTCGTGCTTGGGTTCTAACCTGTTGCCT (site GGTCGAGCTAG),0.304
10,GGTCGTGCTTGGGTTCTAACCTGTTGCCT (site GGTCGCGCTAG),0
11,GGTCGTGCTTGGGTTCTAACCTGTTGCCT (site GGTCGGGCTAG),0.106
12,GGTCGTGCTTGGGTTCTAACCTGTTGCCT (site GGTCGTGCTAG),1.14
13,GGTCTAACTTGGGTTCTAACCTGTTGCCT (site GGTCAAACTAG),0.0448
14,GGTCTAACTTGGGTTCTAACCTGTTGCCT (site GGTCCAACTAG),0.631
15,GGTCTAACTTGGGTTCTAACCTGTTGCCT (site GGTCGAACTAG),0.128
16,GGTCTAACTTGGGTTCTAACCTGTTGCCT (site GGTCTAACTAG),0.649
17,GGTCTGCCTTGGGTTCTAACCTGTTGCCT (site AGTCTGCCTAG),0.171
18,GGTCTGCCTTGGGTTCTAACCTGTTGCCT (site CGTCTGCCTAG),0.252
19,GGTCTGCCTTGGGTTCTAACCTGTTGCCT (site GGTCTGCCTAG),0.375
20,GGTCTGCCTTGGGTTCTAACCTGTTGCCT (site TGTCTGCCTAG),0.397
21,GGTGAGACTTGGGTTCTAACCTGTTGCCA (site AGTGGGACTTG),0.235
22,GGTGAGACTTGGGTTCTAACCTGTTGCCA (site GGTGAGACTTG),2.14

row,Sequence,recombinant barcode read abundance (log10)
1,GGTGAGGCTTGGGTTCTAACCTGTTGCAT (site GGTGAGGCTAT),2.31
2,GGTGAGGCTTGGGTTCTAACCTGTTGCAT (site TAACCTACTTA),0.214
3,GGTGCATCTTGGGTTCTAACCTGTTGCTT (site ATATGTCCTTT),0.0325
4,GGTGCATCTTGGGTTCTAACCTGTTGCTT (site GGTGCATCTAA),0.0847
5,GGTGCGTCTTGGGTTCTAACCTGTTGCCT (site AGTGCGTCTAG),0.246
6,GGTGCGTCTTGGGTTCTAACCTGTTGCCT (site CGTGCGTCTAG),0.132
7,GGTGCGTCTTGGGTTCTAACCTGTTGCCT (site GGTGCGTCTAG),1.57
8,GGTGCGTCTTGGGTTCTAACCTGTTGCCT (site TGTGCGTCTAG),0.119
9,GGTGCTCCTTGGGTTCTAACCTGTTGCAC (site GGTGCTCCTAT),0.085
10,GGTGCTCCTTGGGTTCTAACCTGTTGCAC (site GGTGCTCCTCT),0.04
11,GGTGCTCCTTGGGTTCTAACCTGTTGCAC (site GGTGCTCCTGT),0.684
12,GGTGCTCCTTGGGTTCTAACCTGTTGCAC (site GGTGCTCCTTT),0.216
13,GGTGGCCCTTGGGTTCTAACCTGTTGCCT (site GATGGCCCTAG),0.108
14,GGTGGCCCTTGGGTTCTAACCTGTTGCCT (site GCTGGCCCTAG),0.22
15,GGTGGCCCTTGGGTTCTAACCTGTTGCCT (site GGTGGCCCTAG),1.08
16,GGTGGCCCTTGGGTTCTAACCTGTTGCCT (site GTTGGCCCTAG),0.296
17,GGTGGGGCTTGGGTTCTAACCTGTTGCTG (site GGTGGGGCTCA),2.24
18,GGTGGGGCTTGGGTTCTAACCTGTTGCTG (site GGTTGAGCTCA),0.536
19,GGTGGTCCTTGGGTTCTAACCTGTTGCCT (site GGTGGTCCTAG),1.36
20,GGTGGTCCTTGGGTTCTAACCTGTTGCCT (site GGTTGTCCTAG),0.178
21,GGTTACCCTTGGGTTCTAACCTGTTGCGG (site GGTAACCCTCC),0.716
22,GGTTACCCTTGGGTTCTAACCTGTTGCGG (site GGTCACCCTCC),1.62

row,Sequence,recombinant barcode read abundance (log10)
1,GGTTACCCTTGGGTTCTAACCTGTTGCGG (site GGTGACCCTCC),0.115
2,GGTTACCCTTGGGTTCTAACCTGTTGCGG (site GGTTACCCTCC),2.08
3,GGTTAGTCTTGGGTTCTAACCTGTTGCCG (site ACGGCTACTAA),0.147
4,GGTTAGTCTTGGGTTCTAACCTGTTGCCG (site GGTTAGTCTCG),0.363
5,GGTTGAGCTTGGGTTCTAACCTGTTGCTG (site GGTGGGGCTCA),0.0323
6,GGTTGAGCTTGGGTTCTAACCTGTTGCTG (site GGTTGAGCTCA),0.642
7,GGTTGGCCTTGGGTTCTAACCTGTTGCGG (site GGTTGACCTCC),0.257
8,GGTTGGCCTTGGGTTCTAACCTGTTGCGG (site GGTTGCCCTCC),0.0622
9,GGTTGGCCTTGGGTTCTAACCTGTTGCGG (site GGTTGGCCTCC),0.624
10,GGTTGGCCTTGGGTTCTAACCTGTTGCGG (site GGTTGTCCTCC),0.15
11,GGTTGGGCTTGGGTTCTAACCTGTTGCAG (site GGCTGGGCTCG),0.0851
12,GGTTGGGCTTGGGTTCTAACCTGTTGCAG (site GGTTGGGCTCT),1.46
13,GTAACCTCTTGGGTTCTAACCTGTTGCCT (site GTAACCTCTAG),1.92
14,GTAACCTCTTGGGTTCTAACCTGTTGCCT (site GTAACCTCTCG),1.15
15,GTAACCTCTTGGGTTCTAACCTGTTGCCT (site GTAACCTCTGG),0.0952
16,GTAACCTCTTGGGTTCTAACCTGTTGCCT (site GTAACCTCTTG),0.0654
17,GTAAGAACTTGGGTTCTAACCTGTTGCAG (site GTAAGAACTCT),1.78
18,GTAAGAACTTGGGTTCTAACCTGTTGCAG (site GTAAGTCCTCT),0.544
19,GTAAGGACTTGGGTTCTAACCTGTTGCGG (site CAGTCAGCTAG),0.115
20,GTAAGGACTTGGGTTCTAACCTGTTGCGG (site GTAAGGACTCC),2.25
21,GTAAGTTCTTGGGTTCTAACCTGTTGCCT (site GAAAGTTCTAG),0.049
22,GTAAGTTCTTGGGTTCTAACCTGTTGCCT (site GCAAGTTCTAG),0.258

row,Sequence,recombinant barcode read abundance (log10)
1,GTAAGTTCTTGGGTTCTAACCTGTTGCCT (site GGAAGTTCTAG),0.0929
2,GTAAGTTCTTGGGTTCTAACCTGTTGCCT (site GTAAGTTCTAG),1.11
3,GTAATAGCTTGGGTTCTAACCTGTTGCAT (site ATAATAGCTAT),0.695
4,GTAATAGCTTGGGTTCTAACCTGTTGCAT (site GTAATAGCTAT),2
5,GTAATCCCTTGGGTTCTAACCTGTTGCCG (site GTAATCCCTCG),1.76
6,GTAATCCCTTGGGTTCTAACCTGTTGCCG (site GTAATCCCTTG),0.572
7,GTAATTGCTTGGGTTCTAACCTGTTGCCT (site GTAAATGCTAG),0.184
8,GTAATTGCTTGGGTTCTAACCTGTTGCCT (site GTAACTGCTAG),0.519
9,GTAATTGCTTGGGTTCTAACCTGTTGCCT (site GTAAGTGCTAG),0.0962
10,GTAATTGCTTGGGTTCTAACCTGTTGCCT (site GTAATTGCTAG),0.918
11,GTACAATCTTGGGTTCTAACCTGTTGCAG (site CATAGTCCTTG),0
12,GTACAATCTTGGGTTCTAACCTGTTGCAG (site GTACAATCTCT),0.632
13,GTACGACCTTGGGTTCTAACCTGTTGCAC (site AACAAGACTAG),0.189
14,GTACGACCTTGGGTTCTAACCTGTTGCAC (site GTACGACCTGT),1.91
15,GTACGTACTTGGGTTCTAACCTGTTGCCT (site ATACGTACTAG),0.0704
16,GTACGTACTTGGGTTCTAACCTGTTGCCT (site CTACGTACTAG),0.283
17,GTACGTACTTGGGTTCTAACCTGTTGCCT (site GTACGTACTAG),0.586
18,GTACGTACTTGGGTTCTAACCTGTTGCCT (site TTACGTACTAG),0.777
19,GTACGTCCTTGGGTTCTAACCTGTTGCGT (site GTACGTCCTAA),0.0527
20,GTACGTCCTTGGGTTCTAACCTGTTGCGT (site GTACGTCCTAC),2.36

# Reference: the supplement of paper PMC11208160
